Experiments:
[1] = test system: high-fat diet mouse model of type 2 diabetes; test: fat accumulation in tissues, high-fat diet model; type: in vivo
Protocol: Twenty-seven C57BL/6 male mice (3-week old) were acclimated to the breeding condition for 1 week. […] Blood glucose was measured every week.
Mouse was anesthetized with avertin, and blood was collected from a heart. After the reaction with EDTA in a vacucontainer, the blood was centrifuged for 15 minutes at 1,500×g, 4° C. to separate plasma. According to heart perfusion with PBS and 4% paraformaldehyde (PFA), tissue fixation was carried out. Then, each tissue was harvested and stored in PFA.

[2] = test system: MnSOD; test: activity of MnSOD, renal ischemia and reperfusion; type: in vivo, mouse; details: L-tyrosine 100 mg/kg oral for 4 days, IR
Protocol: C57BL/6 male mouse (23 to 25 g, KOATECH, South Korea) was allowed to have free access to diets and water in sterile breeding room with constant temperature and humidity. The animals were divided into 3 test groups, i.e., 1) Control group (Sham), 2) Renal ischemia having treatment with prepared solvent and induced reperfusion group (CMC+IR), and 3) Renal ischemia having treatment with L-tyrosine and induced reperfusion group (L-Tyr+IR).
L-Tyrosine (100 mg/kg) was suspended in 0.5% CMC (carboxymethyl cellulose). The animal was orally administered, once a day for 4 days, with L-tyrosine or the prepared solvent CMC. Thirty minutes after the oral administration on Day 4, renal ischemia was caused. Specifically, the animal abdomen was cut and renal pedicles at both sides were clamped using a Muller atraumatic vascular clamp to cause renal ischemia. After 25 minutes of blood ischemia, the clamp was removed followed by reperfusion. The control group (Sham) received the same operational procedures as above except the ischemia using clamp. Twenty-four hours after the reperfusion, the test animal was sacrificed, blood was collected from the heart, and the tissues were harvested.

[3] = test system: acute renal failure caused by kidney ischemia or reperfusion injury; test: plasma creatinine (Jaffe method), renal ischemia and reperfusion; type: in vivo, mouse; details: L-tyrosine 100 mg/kg oral for 4 days, 24 hours after ischemia and reperfusion
Protocol: C57BL/6 male mouse (23 to 25 g, KOATECH, South Korea) was allowed to have free access to diets and water in sterile breeding room with constant temperature and humidity. The animals were divided into 3 test groups, i.e., 1) Control group (Sham), 2) Renal ischemia having treatment with prepared solvent and induced reperfusion group (CMC+IR), and 3) Renal ischemia having treatment with L-tyrosine and induced reperfusion group (L-Tyr+IR). L-Tyrosine (100 mg/kg) was suspended in 0.5% CMC (carboxymethyl cellulose). The animal was orally administered, once a day for 4 days, with L-tyrosine or the prepared solvent CMC. Thirty minutes after the oral administration on Day 4, renal ischemia was caused. Specifically, the animal abdomen was cut and renal pedicles at both sides were clamped using a Muller atraumatic vascular clamp to cause renal ischemia. […] Blood collected in the above was centrifuged for 15 minutes at 3,000 rpm to separate plasma, and blood creatinine was measured by using Jaffe method. With regard to Jaffe method, based on a difference between the absorbance measured at a wavelength of 510 nm after the reaction of plasma sample with picric acid and the absorbance measured after completing the reaction using 60% acetic acid, the amount of creatinine was calculated and it was expressed in unit of mg/dl.

[4] = test system: nitrotyrosine protein; test: nitrotyrosine protein in liver tissues (Western blot), azoxymethane model; type: in vivo, mouse; details: L-tyrosine 100 mg/kg oral for 4 days, 16 hours after the administration of AOM
Protocol: (§1) C57BL/6 male mouse (13-week old, KOATECH, South Korea) was allowed to have free access to diets and water in sterile breeding room with constant temperature and humidity. The animals were divided into 3 test groups, i.e., (1) Control group (Control), (2) Carboxymethyl cellulose+azoxymethane treatment group (CMC+AOM), and (3) L-Tyrosine+AOM treatment group (L-Tyr+AOM). L-Tyrosine (100 mg/kg) was suspended in 0.5% CMC (carboxymethyl cellulose). The animal was orally administered, once a day for 4 days, with L-tyrosine or the prepared solvent CMC. Two hours after the oral administration on Day 4, intraperitoneal injection of AOM (100 mg/kg, […]) was carried out. To prevent dehydration, the animal was intraperitoneally injected with […] of physiological saline, 12 hours after the administration of AOM. Four hours after the injection, the test animal was sacrificed, blood was collected from the heart, and the liver tissues were harvested.
Liver tissues were homogenized with RIPA buffer solution. After centrifuge for 15 minutes at 16,000×g, 4° C., supernatant was collected and the protein quantification was carried out by BCA method. After SDS-PAGE electrophoresis, proteins were transferred to a PVDF membrane, and then blocked with 5% skim milk. […]

[5] = test system: animal model of acute hepatic encephalopathy caused by AOM; test: ammonia in blood, hepatic encephalopathy (hyperammonemia) caused by azoxymethane; type: in vivo, mouse; details: L-tyrosine 100 mg/kg oral once a day for 4 days, AOM 100 mg/kg i.p.
Protocol: as §1, with “harvested. Amount of ammonia in blood was measured by using PocketChem BA PA-4140 (Arkray, Japan), which is an analytical device based on single wavelength reflectometry. Specifically, blood was applied in an amount of 20 μl on a test strip followed by reaction for 3 minutes. The strip was then inserted to the measurement device to obtain the absorbance at a wavelength of 635 nm (LED), which was then expressed in unit of μg/dl.” for “harvested.”

[6] = HFD animal model, L-tyrosine diet (181 mg/kg)

Row | SMILES | amount of fat tissues around kidney [1, 6] | fat accumulation in liver [1, 6] | tissue weight (fat accumulation in tissues) ([1]; HFD+Tyr compared to HFD) | activity of MnSOD [2] | creatinine in plasma [3] | nitrotyrosine protein in liver tissues [4] | blood ammonia [5]
1 | N[C@@H](Cc1ccc(O)cc1)C(=O)O [tyrosine] | reduced to a statistically different level | fat accumulation is reduced all over the liver | statistically significant decrease in tissue weight | again recovered |  |  | 
2 | N[C@@H](Cc1ccc(O)cc1)C(=O)O [L-tyrosine] |  |  |  |  | suppressed | suppressed with statistical significance | suppressed
